In US12780800B1, “Triazole-pyridinyl substituted azacyclohexyl acetic acid compounds as LPA receptor antagonists” (Viva Star Biosciences Limited, priority 2021, dated 2022):

Target: T1, LPA1 (Homo sapiens, UniProt Q92633)
T1 construct: ProLink (PK) beta-galactosidase enzyme-fragment tag; host or cells: CHO-K1
Test: LPA1 calcium flux assay (LPA1 functional antagonist assay)
Format: cell-based
Settings: PathHunter CHO-K1 EDG2 β-Arrestin cell line; calcium indicator dye; stimulated with EC80 concentration of LPA; FLIPR Tetra
Method in brief: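 The LPA1 antagonist readout was intracellular calcium flux, and IC50 values were calculated from it. Plates stood 30 min at RT after compound addition. Cells, grown overnight, had first taken up calcium dye over 45 min at 37 °C.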

T1 sequence (Q92633 whole entry, the tested form may be a part): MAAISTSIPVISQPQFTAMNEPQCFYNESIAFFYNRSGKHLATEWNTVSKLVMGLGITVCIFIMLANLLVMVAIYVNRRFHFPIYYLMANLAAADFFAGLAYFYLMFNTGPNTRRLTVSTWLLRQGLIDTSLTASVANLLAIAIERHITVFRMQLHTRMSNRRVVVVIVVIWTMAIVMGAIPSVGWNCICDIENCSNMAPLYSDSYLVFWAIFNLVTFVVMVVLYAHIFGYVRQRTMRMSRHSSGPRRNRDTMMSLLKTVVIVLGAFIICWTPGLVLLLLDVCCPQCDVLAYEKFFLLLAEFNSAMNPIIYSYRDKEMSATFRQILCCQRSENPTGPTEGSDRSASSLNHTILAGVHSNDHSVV

Compound: Cn1nnc(-c2ccc(N3CCC[C@H](CC(=O)O)C3)c(C(F)(F)F)n2)c1Cn1cc(C2CC2)ccc1=O [Example 59, (R)-2-(1-(6-(5-((5-cyclopropyl-2-oxopyridin-1(2H)-yl)methyl)-1-methyl-1H-1,2,3-triazol-4-yl)-2-(trifluoromethyl)pyridin-3-yl)piperidin-3-yl)acetic acid]
- IC50: < 100 nM

Compound: CCCc1ccc(=O)n(Cc2c(-c3ccc(N4CCC[C@H](CC(=O)O)C4)c(C(F)F)n3)nnn2C)c1 [Example 60, (R)-2-(1-(2-(difluoromethyl)-6-(1-methyl-5-((2-oxo-5-propylpyridin-1(2H)-yl)methyl)-1H-1,2,3-triazol-4-yl)pyridin-3-yl)piperidin-3-yl)acetic acid]
- IC50: < 100 nM

Compound: CCc1nc(-c2nnn(C)c2CN2C[C@H](CC3CC3)N(C)C2=O)ccc1N1C[C@@H](CC(=O)O)CC(F)(F)C1 [Example 61, 2-((S)-1-(6-(5-(((S)-4-(cyclopropylmethyl)-3-methyl-2-oxoimidazolidin-1-yl)methyl)-1-methyl-1H-1,2,3-triazol-4-yl)-2-ethylpyridin-3-yl)-5,5-difluoropiperidin-3-yl)acetic acid]
- IC50: 500 to 5000 nM

Compound: Cc1nc(-c2nnn(C)c2CN2C[C@@H](CC3CC3)N(C)C2=O)ccc1N1C[C@@H](CC(=O)O)CC(F)(F)C1 [Example 62, 2-((S)-1-(6-(5-(((R)-4-(cyclopropylmethyl)-3-methyl-2-oxoimidazolidin-1-yl)methyl)-1-methyl-1H-1,2,3-triazol-4-yl)-2-methylpyridin-3-yl)-5,5-difluoropiperidin-3-yl)acetic acid]
- IC50: 500 to 5000 nM

Compound: Cc1nc(-c2nnn(C)c2CN2C[C@H](CC3CC3)N(C)C2=O)ccc1N1C[C@@H](CC(=O)O)CC(F)(F)C1 [Example 63, 2-((S)-1-(6-(5-(((S)-4-(cyclopropylmethyl)-3-methyl-2-oxoimidazolidin-1-yl)methyl)-1-methyl-1H-1,2,3-triazol-4-yl)-2-methylpyridin-3-yl)-5,5-difluoropiperidin-3-yl)acetic acid]
- IC50: 100 to 500 nM

Compound: Cc1nc(-c2nnn(C)c2CN2C[C@H](CC3CC3)N(C)C2=O)ccc1N1C[C@H](CC(=O)O)CC(F)(F)C1 [Example 64, 2-((R)-1-(6-(5-(((S)-4-(cyclopropylmethyl)-3-methyl-2-oxoimidazolidin-1-yl)methyl)-1-methyl-1H-1,2,3-triazol-4-yl)-2-methylpyridin-3-yl)-5,5-difluoropiperidin-3-yl)acetic acid]
- IC50: 500 to 5000 nM

Compound: CCc1nc(-c2nnn(C)c2CN2C[C@H](CC3CC3)NC2=O)ccc1N1C[C@@H](CC(=O)O)CC(F)(F)C1 [Example 65, 2-((S)-1-(6-(5-(((S)-4-(cyclopropylmethyl)-2-oxoimidazolidin-1-yl)methyl)-1-methyl-1H-1,2,3-triazol-4-yl)-2-ethylpyridin-3-yl)-5,5-difluoropiperidin-3-yl)acetic acid]
- IC50: > 5000 nM

Compound: Cc1nc(-c2nnn(C)c2Cn2cc(CC3CC3)n(C)c2=O)ccc1N1C[C@@H](CC(=O)O)CC(F)(F)C1 [Example 67, (S)-2-(1-(6-(5-((4-(cyclopropylmethyl)-3-methyl-2-oxo-2,3-dihydro-1H-imidazol-1-yl)methyl)-1-methyl-1H-1,2,3-triazol-4-yl)-2-methylpyridin-3-yl)-5,5-difluoropiperidin-3-yl)acetic acid]
- IC50: 100 to 500 nM

Compound: CCc1nc(-c2nnn(C)c2Cn2nc(CC3CC3)n(C)c2=O)ccc1N1C[C@@H](CC(=O)O)CC(F)(F)C1 [Example 68, (S)-2-(1-(6-(5-((3-(cyclopropylmethyl)-4-methyl-5-oxo-4,5-dihydro-1H-1,2,4-triazol-1-yl)methyl)-1-methyl-1H-1,2,3-triazol-4-yl)-2-ethylpyridin-3-yl)-5,5-difluoropiperidin-3-yl)acetic acid]
- IC50: 500 to 5000 nM

Compound: Cc1nc(-c2nnn(C)c2Cn2ccn(CC(C)C)c2=O)ccc1N1C[C@@H](CC(=O)O)CC(F)(F)C1 [Example 71, (S)-2-(5,5-difluoro-1-(6-(5-((3-isobutyl-2-oxo-2,3-dihydro-1H-imidazol-1-yl)methyl)-1-methyl-1H-1,2,3-triazol-4-yl)-2-methylpyridin-3-yl)piperidin-3-yl)acetic acid]
- IC50: > 5000 nM

Compound: Cc1nc(-c2nnn(C)c2Cn2ccn(CC3CC3)c2=O)ccc1N1C[C@@H](CC(=O)O)CC(F)(F)C1 [Example 72, (S)-2-(1-(6-(5-((3-(cyclopropylmethyl)-2-oxo-2,3-dihydro-1H-imidazol-1-yl)methyl)-1-methyl-1H-1,2,3-triazol-4-yl)-2-methylpyridin-3-yl)-5,5-difluoropiperidin-3-yl)acetic acid]
- IC50: > 5000 nM

Compound: CCC(C)n1ccn(Cc2c(-c3ccc(N4C[C@@H](CC(=O)O)CC(F)(F)C4)c(C)n3)nnn2C)c1=O (stereo partly drawn) [Example 73, 2-((3S)-1-(6-(5-((3-(sec-butyl)-2-oxo-2,3-dihydro-1H-imidazol-1-yl)methyl)-1-methyl-1H-1,2,3-triazol-4-yl)-2-methylpyridin-3-yl)-5,5-difluoropiperidin-3-yl)acetic acid]
- IC50: > 5000 nM

Compound: CCc1nc(-c2nnn(C)c2COc2nccc(C3CCC3)n2)ccc1N1CCC[C@H](CC(=O)O)C1 [Example 74, (R)-2-(1-(6-(5-(((4-cyclobutylpyrimidin-2-yl)oxy)methyl)-1-methyl-11H-1,2,3-triazol-4-yl)-2-ethylpyridin-3-yl)piperidin-3-yl)acetic acid]
- IC50: < 100 nM

Compound: Cc1nc(-c2nnn(C)c2COc2nccc(C3CC3)n2)ccc1N1C[C@@H](CC(=O)O)CC(F)(F)C1 [Example 75, (S)-2-(1-(6-(5-(((4-cyclopropylpyrimidin-2-yl)oxy)methyl)-1-methyl-1H-1,2,3-triazol-4-yl)-2-methylpyridin-3-yl)-5,5-difluoropiperidin-3-yl)acetic acid]
- IC50: 500 to 5000 nM

Compound: Cc1nc(-c2nnn(C)c2COc2nccc(C3CCC3)n2)ccc1N1C[C@@H](CC(=O)O)CC(F)(F)C1 [Example 76, (S)-2-(1-(6-(5-(((4-cyclobutylpyrimidin-2-yl)oxy)methyl)-1-methyl-1H-1,2,3-triazol-4-yl)-2-methylpyridin-3-yl)-5,5-difluoropiperidin-3-yl)acetic acid]
- IC50: < 100 nM

Compound: Cc1nc(-c2nnn(C)c2COc2nccc(C(C)C)n2)ccc1N1C[C@@H](CC(=O)O)CC(F)(F)C1 [Example 77, (S)-2-(5,5-difluoro-1-(6-(5-(((4-isopropylpyrimidin-2-yl)oxy)methyl)-1-methyl-1H-1,2,3-triazol-4-yl)-2-methylpyridin-3-yl)piperidin-3-yl)acetic acid]
- IC50: 100 to 500 nM

Compound: Cc1nc(-c2nnn(C)c2COc2cc(-n3cccn3)ncn2)ccc1N1C[C@@H](CC(=O)O)CC(F)(F)C1 [Example 78, (S)-2-(1-(6-(5-(((6-(1H-pyrazol-1-yl)pyrimidin-4-yl)oxy)methyl)-1-methyl-1H-1,2,3-triazol-4-yl)-2-methylpyridin-3-yl)-5,5-difluoropiperidin-3-yl)acetic acid]
- IC50: < 100 nM

Compound: CCc1nc(-c2nnn(C)c2COc2nccc(C3CCC3)n2)ccc1N1C[C@@H](CC(=O)O)CC(F)(F)C1 [Example 79, (S)-2-(1-(6-(5-(((4-cyclobutylpyrimidin-2-yl)oxy)methyl)-1-methyl-1H-1,2,3-triazol-4-yl)-2-ethylpyridin-3-yl)-5,5-difluoropiperidin-3-yl)acetic acid]
- IC50: < 100 nM
